Data taken from the SangsterLogP compilation.

Details: pH 7.4

logD | Structure (SMILES)
0.35 | NS(=O)(=O)c1cc2cc(C(=O)NCC(O)CO)sc2s1 (configuration not stated)
-0.15 | CS(=O)CCNC(=O)c1cc2cc(S(N)(=O)=O)sc2s1 (configuration not stated)
